Measured values reported in patent publication US20240336897A1, “COMPOSITIONS AND METHODS FOR CELL REPROGRAMMING” (CORNELL UNIVERSITY, priority 2021, published 2024).

Columns and labels:
biPSCs [1] = assay: Sustenance of biPSCs using specific pathway inhibition (GMTi medium): repeated passaging, morphology; conditions: at least over a few passages, cell morphology
Procedure: (§1) The biPSC colonies emerging from reprogramming trials were manually picked, dissociated into single cells using TrypLE™ (ThermoFisher) and plated on iMEFs in GMTi medium. For passaging, confluent cultures of biPSCs were rinsed once with PBS and incubated with TrypLE for 5 minutes. Cells were then collected in fibroblast medium, and centrifuged at 200×rcf for 5 minutes. The pellet was then resuspended in GMTi medium for plating on iMEFs. Passaging of biPSCs was performed repeatedly (every 3-4 days), with concurrent examination and imaging of morphology, growth characteristics and expression of PSC markers. […] Base medium conditions lacking individual inhibitors for GSK3β, MEK1/2 or TGFβ/activin/nodal were also prepared and tested for their ability to sustain pluripotent cultures. All cultures were maintained in a humidified incubator at 37° C. under an atmosphere of 5% CO2.

biPSCs [2] = assay: Base medium lacking individual inhibitors for GSK3β, MEK1/2 or TGFβ/activin/nodal; conditions: GMTi base medium lacking this inhibitor
Procedure: as §1

biPSCs [3] = conditions: MEK1/2 and GSK3B inhibitors used together; cited from earlier work

| Compound | effect of excluding the factor from the GMTi medium on biPSCs (biPSCs [1]) | effect of removing the single inhibitor from biPSC cultures (biPSCs [2]) | effect on biPSCs (biPSCs [3]) |
| --- | --- | --- | --- |
| LIF: human leukemia inhibitory factor | did not negatively affect biPSCs |  |  |
| Cc1cccc(-c2nn(C(=S)Nc3ccccc3)cc2-c2ccnc3ccccc23)n1 [A83-01] |  | resulted in differentiation |  |
| IL6: interleukin 6, leukemia inhibitory factor family member | did not negatively affect biPSCs |  |  |
| Cc1c[nH]c(-c2cnc(NCCNc3ccc(C#N)cn3)nc2-c2ccc(Cl)cc2Cl)n1 [CHIR99021] |  | resulted in differentiation | suspend biPSCs in a pluripotent state, but without the ability to proliferate |
| O=C(NOC[C@H](O)CO)c1ccc(F)c(F)c1Nc1ccc(I)cc1F [PD0325901] |  |  | suspend biPSCs in a pluripotent state, but without the ability to proliferate |
